This is an account of results in patent US20090030039A1, “Piperidine Derivatives as Cxcr3 Receptor Antagonists” (priority 2006, published 2009).

Read-outs that look alike come from different tables or passages of the source.

The target of the assay is T1, human CXCR3 (Homo sapiens, UniProt P49682).
T1 construct: expressed in transfected cells; host or cells: CHO cells (membrane preparation)
T1 sequence (P49682 1-368): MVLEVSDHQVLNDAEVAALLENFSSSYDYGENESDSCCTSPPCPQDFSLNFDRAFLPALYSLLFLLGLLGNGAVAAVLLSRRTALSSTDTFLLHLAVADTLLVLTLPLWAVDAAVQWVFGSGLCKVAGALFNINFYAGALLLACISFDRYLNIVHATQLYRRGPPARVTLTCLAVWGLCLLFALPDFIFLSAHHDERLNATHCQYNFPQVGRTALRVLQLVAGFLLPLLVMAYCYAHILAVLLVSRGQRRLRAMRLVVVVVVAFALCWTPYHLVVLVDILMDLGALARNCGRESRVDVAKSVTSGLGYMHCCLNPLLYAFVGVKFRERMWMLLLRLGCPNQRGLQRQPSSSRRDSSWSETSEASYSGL
In words: [35S]GTPγS exchange assay, CXCR3 receptor inhibition (hI-TAC-induced GTPγS-binding). Type of assay: biochemical. On the procedure:
CXCR3 Receptor Inhibition was Examined in a [^35S]GTPγS Exchange Assay
The exchange of guanosine 5′-[^35S]triphosphate was measured on membranes of human CXCR3-transfected CHO cells. [^35S]GTPγS exchange assays were performed in 96-well plates with 10 μg of membrane protein/well using basic flashplates (Perkin Elmer). Compounds were dissolved in DMSO and diluted with incubation buffer to yield required concentrations with 9% DMSO. Incubation buffer is composed of 20 mM HEPES, 100 mM NaCl, 3 μM GDP and 1 mM MgCl2, pH 7.4. […] Compound, membranes, hI-TAC (interferon-inducible T-cell alpha chemoattractant) and [^35S]GTPγS were added in a total volume of 200 μl. First, 20 μl of the appropriate compound dilution and 140 μl membranes from CXCR3-CHO cells were dissolved in membrane incubation buffer and pre-incubated for 30 minutes at 30° C. Then, 20 μl of hI-TAC dissolved at 30 nM in incubation buffer was added to the membranes and the mixture containing 1% of DMSO was incubated for another 30 minutes at 30° C. […] After 1 minute shaking and 30 minutes incubation at 30° C., flashplates were centrifuged for 5 minutes at 2500 rpm at room temperature. Flashplate bound radioactivity was determined by liquid scintillation counting. Basal GTPγS-binding was measured in 8 wells with membranes incubated in the same volume with 1% DMSO, without I-TAC. Maximal GTPγS-binding was measured in 8 wells with membranes incubated with 1% DMSO and 3 nM I-TAC. […] IC50 values were calculated using non-linear regression in Graphpad Prism.

Setting [1] is: -log IC50 (molar) inhibiting 50% of specific I-TAC-induced GTPγS-binding, membranes of human CXCR3-transfected CHO cells, read-out: pIC50 (converted).
The mark [2] stands for this setting: pIC50, -log IC50 (molar) inhibiting 50% of specific I-TAC-induced GTPγS-binding, membranes of human CXCR3-transfected CHO cells.
[3] abbreviates: -log IC50 (molar) inhibiting 50% of specific I-TAC-induced GTPγS-binding, membranes of human CXCR3-transfected CHO cells.

Take `O=C1CCC(c2cccc(Cl)c2)(C2CCN(Cc3ccc(Cl)cc3)CC2)C(=O)N1` (stereo not shown) [Compound 63]: the IC50 under setting [1] was 2000 nM.

As to `Cc1cccc(C2(C3CCN(Cc4ccc(Cl)cc4)CC3)CCC(=O)NC2=O)c1` (stereo not shown) [Compound 64], the IC50 under setting [1] was 2000 nM. Take `O=C1CCC(c2cccc(C(F)(F)F)c2)(C2CCN(Cc3ccc(Cl)cc3)CC2)C(=O)N1` (stereo not shown) [Compound 65]: the IC50 under setting [2] is 2510 nM. For the molecule `O=C1CCC(c2cccc(C(=O)O)c2)(C2CCN(Cc3ccc(Cl)cc3)CC2)C(=O)N1` (stereo not shown) [Compound 66], the IC50 under setting [1] is 794 nM. Take `COc1cccc(C2(C3CCN(Cc4ccc(Cl)cc4)CC3)CCC(=O)NC2=O)c1` (stereo not shown) [Compound 67]: the IC50 under setting [1] was 1000 nM. Same read-out and setting: the same measure for `O=C1CCC(c2ccc(F)cc2)(C2CCN(Cc3ccc(Cl)cc3)CC2)C(=O)N1` (stereo not shown) [Compound 68]: 794 nM. With `COc1ccc(C2(C3CCN(Cc4ccc(Cl)cc4)CC3)CCC(=O)NC2=O)cc1` (stereo not shown) [Compound 69], the IC50 under setting [1] is 3160 nM. `O=C1CCC(c2ccccc2)(C2CCN(Cc3ccc(Cl)cc3Cl)CC2)C(=O)N1` (stereo not shown) [Compound 70]: the IC50 under setting [1] was 2510 nM. Take `O=C1CCC(c2cccc(Cl)c2)(C2CCN(Cc3ccc(Cl)cc3Cl)CC2)C(=O)N1` (stereo not shown) [Compound 71]: under setting [1], the IC50 was 2510 nM. Consider `Cc1cccc(C2(C3CCN(Cc4ccc(Cl)cc4Cl)CC3)CCC(=O)NC2=O)c1` (stereo not shown) [Compound 72], for which the IC50 under setting [1] was 6310 nM. For `O=C1CCC(c2cccc(C(=O)O)c2)(C2CCN(Cc3ccc(Cl)cc3Cl)CC2)C(=O)N1` (stereo not shown) [Compound 73], the IC50 under setting [1] was 501 nM. In the case of `COc1cccc(C2(C3CCN(Cc4ccc(Cl)cc4Cl)CC3)CCC(=O)NC2=O)c1` (stereo not shown) [Compound 74], the IC50 under setting [1] was 3980 nM. On to `O=C1CCC(c2ccc(F)cc2)(C2CCN(Cc3ccc(Cl)cc3Cl)CC2)C(=O)N1` (stereo not shown) [Compound 75], for which the IC50 under setting [1] is 2510 nM. Take `O=C1CCC(c2ccccc2)(C2CCN(Cc3ccc(Cl)c(F)c3)CC2)C(=O)N1` (stereo not shown) [Compound 76]: the IC50 (read-out: pIC50 (converted)) is 316 nM.

For the molecule `O=C1CCC(c2cccc(Cl)c2)(C2CCN(Cc3ccc(Cl)c(F)c3)CC2)C(=O)N1` (stereo not shown) [Compound 77], the IC50 under setting [1] was 794 nM. The same measure, in the same setting: with `Cc1cccc(C2(C3CCN(Cc4ccc(Cl)c(F)c4)CC3)CCC(=O)NC2=O)c1` (stereo not shown) [Compound 78] the figure was 794 nM; with `COc1cccc(C2(C3CCN(Cc4ccc(Cl)c(F)c4)CC3)CCC(=O)NC2=O)c1` (stereo not shown) [Compound 79], 251 nM. By pIC50 is commonly meant −log10 of the IC50, conventionally taken in molar units. Read a high pIC50 as a low IC50. As to `O=C1CCC(c2ccccc2)(C2CCN(Cc3ccc(Cl)c(Cl)c3)CC2)C(=O)N1` (stereo not shown) [Compound 80], the pIC50 under setting [3] is listed as 5.9. With `O=C1CCC(c2cccc(Cl)c2)(C2CCN(Cc3ccc(Cl)c(Cl)c3)CC2)C(=O)N1` (stereo not shown) [Compound 81], the IC50 under setting [1] was 3980 nM. Take `Cc1cccc(C2(C3CCN(Cc4ccc(Cl)c(Cl)c4)CC3)CCC(=O)NC2=O)c1` (stereo not shown) [Compound 82]: the IC50 under setting [1] was 3160 nM.

For the molecule `O=C1CCC(c2cccc(C(=O)O)c2)(C2CCN(Cc3ccc(Cl)c(Cl)c3)CC2)C(=O)N1` (stereo not shown) [Compound 83], the IC50 under setting [1] is 398 nM.

Regarding `COc1cccc(C2(C3CCN(Cc4ccc(Cl)c(Cl)c4)CC3)CCC(=O)NC2=O)c1` (stereo not shown) [Compound 84], under setting [1], the IC50 was 2000 nM. Turning to `O=C1CCC(c2ccc(F)cc2)(C2CCN(Cc3ccc(Cl)c(Cl)c3)CC2)C(=O)N1` (stereo not shown) [Compound 85], the IC50 under setting [1] is 794 nM. Consider `O=C1CCC(c2ccccc2)(C2CCN(Cc3ccc(Cl)c(C(F)(F)F)c3)CC2)C(=O)N1` (stereo not shown) [Compound 86], for which the IC50 under setting [2] was 2000 nM. For the molecule `O=C1CCC(c2ccccc2)(C2CCN(Cc3ccc(Br)cc3)CC2)C(=O)N1` (stereo not shown) [Compound 87], the IC50 under setting [2] was 794 nM. Consider `O=C1CCC(c2ccccc2)(C2CCN(Cc3ccc(Br)cc3)CC2)C(=O)N1` (stereo not shown) [Compound 88], for which the IC50 under setting [2] was 1260 nM. Regarding `O=C1CCC(c2cccc(Cl)c2)(C2CCN(Cc3ccc(Br)cc3)CC2)C(=O)N1` (stereo not shown) [Compound 89], under setting [1], the IC50 is 1580 nM. With `O=C1CCC(c2cccc(C(F)(F)F)c2)(C2CCN(Cc3ccc(Br)cc3)CC2)C(=O)N1` (stereo not shown) [Compound 90], the IC50 under setting [1] is 1580 nM.

`O=C1CCC(c2cccc(C(=O)NCCCO)c2)(C2CCN(Cc3ccc(Br)cc3)CC2)C(=O)N1` (stereo not shown) [Compound 91] yielded a pIC50 under setting [3] of 5.9.

With `O=C1CCC(c2ccc(F)cc2)(C2CCN(Cc3ccc(Br)cc3)CC2)C(=O)N1` (stereo not shown) [Compound 92], under setting [1], the IC50 is 1000 nM. For the molecule `COc1ccc(C2(C3CCN(Cc4ccc(Br)cc4)CC3)CCC(=O)NC2=O)cc1` (stereo not shown) [Compound 93], the IC50 under setting [1] is 3980 nM. Take `O=C1CCC(c2ccccc2)(C2CCN(Cc3ccc(Br)cc3F)CC2)C(=O)N1` (stereo not shown) [Compound 94]: under setting [1], the IC50 is 501 nM. As for `O=C1CCC(c2cccc(Cl)c2)(C2CCN(Cc3ccc(Br)cc3F)CC2)C(=O)N1` (stereo not shown) [Compound 95], under setting [1], the IC50 is 1580 nM. The same measure, in the same setting: the same measure for `O=C1CCC(c2cccc(C(F)(F)F)c2)(C2CCN(Cc3ccc(Br)cc3F)CC2)C(=O)N1` (stereo not shown) [Compound 96]: 3160 nM.

Consider `O=C1CCC(c2cccc(C(=O)O)c2)(C2CCN(Cc3ccc(Br)cc3F)CC2)C(=O)N1` (stereo not shown) [Compound 97], for which the IC50 under setting [1] is 501 nM. The same measure, in the same setting: with `O=C1CCC(c2ccc(F)cc2)(C2CCN(Cc3ccc(Br)cc3F)CC2)C(=O)N1` (stereo not shown) [Compound 98] the figure was 631 nM. The same measure, in the same setting: the same measure for `O=C1CCC(c2cccc(C(=O)O)c2)(C2CCN(Cc3ccc(Br)c(F)c3)CC2)C(=O)N1` (stereo not shown) [Compound 99]: 398 nM; for `Cc1ccc(CN2CCC(C3(c4cccc(C)c4)CCC(=O)NC3=O)CC2)cc1` (stereo not shown) [Compound 101]: 2510 nM; for `O=C1CCC(c2ccccc2)(C2CCN(Cc3ccc(C(F)(F)F)cc3)CC2)C(=O)N1` (stereo not shown) [Compound 102]: 3980 nM. Turning to `O=C1CCC(c2cccc(Cl)c2)(C2CCN(Cc3ccc(C(F)(F)F)cc3)CC2)C(=O)N1` (stereo not shown) [Compound 103], the IC50 under setting [1] is 3980 nM.

Consider `Cc1cccc(C2(C3CCN(Cc4ccc(C(F)(F)F)cc4)CC3)CCC(=O)NC2=O)c1` (stereo not shown) [Compound 104], for which, under setting [1], the IC50 was 3980 nM. For the molecule `O=C1CCC(c2ccc(F)cc2)(C2CCN(Cc3ccc(C(F)(F)F)cc3)CC2)C(=O)N1` (stereo not shown) [Compound 106], the IC50 under setting [1] was 3980 nM. Consider `COc1ccc(CN2CCC(C3(c4ccccc4)CCC(=O)NC3=O)CC2)cc1` (stereo not shown) [Compound 107], for which, under setting [1], the IC50 was 3980 nM. On to `COc1ccc(CN2CCC(C3(c4ccccc4)CCC(=O)NC3=O)CC2)c(OC)c1` (stereo not shown) [Compound 108], for which the IC50 under setting [1] is 7940 nM. With `O=C1CCC(c2ccccc2)(C2CCN(Cc3ccc(OC(F)F)cc3)CC2)C(=O)N1` (stereo not shown) [Compound 109], the IC50 under setting [1] was 1000 nM. On the same count and under the same terms, with `O=C1CCC(c2cccc(C(F)(F)F)c2)(C2CCN(Cc3ccc(OC(F)F)cc3)CC2)C(=O)N1` (stereo not shown) [Compound 110] the figure was 7940 nM; with `O=C1CCC(c2ccc(F)cc2)(C2CCN(Cc3ccc(OC(F)F)cc3)CC2)C(=O)N1` (stereo not shown) [Compound 111], 1000 nM; with `O=C1CCC(c2ccccc2)(C2CCN(Cc3ccc(OC(F)(F)F)cc3)CC2)C(=O)N1` (stereo not shown) [Compound 112], 1000 nM.

With `O=C1CCC(c2ccc(F)cc2)(C2CCN(Cc3ccc(OC(F)(F)F)cc3)CC2)C(=O)N1` (stereo not shown) [Compound 113], the IC50 under setting [1] was 5010 nM. On the same count and under the same terms, the same measure for `O=C1CCC(c2cccc(Cl)c2)(C2CCN(Cc3ccc(OC(F)(F)F)cc3)CC2)C(=O)N1` (stereo not shown) [Compound 114]: 7940 nM; for `CSc1ccc(CN2CCC(C3(c4ccccc4)CCC(=O)NC3=O)CC2)cc1` (stereo not shown) [Compound 116]: 5010 nM; for `CSc1ccc(CN2CCC(C3(c4cccc(Cl)c4)CCC(=O)NC3=O)CC2)cc1` (stereo not shown) [Compound 117]: 6310 nM. For `O=C1CCC(c2ccccc2)(C2CCN(Cc3ccc(OCc4ccccc4)cc3)CC2)C(=O)N1` (stereo not shown) [Compound 119], the IC50 under setting [1] was 6310 nM.

Consider `CN1C(=O)CCC(c2ccccc2)(C2CCN(Cc3ccc(Cl)cc3)CC2)C1=O` (stereo not shown) [Compound 120], for which the IC50 under setting [1] was 1580 nM. The same measure, in the same setting: the same measure for `COC(=O)CCN1C(=O)CCC(c2ccccc2)(C2CCN(Cc3ccc(Cl)cc3)CC2)C1=O` (stereo not shown) [Compound 121]: 6310 nM; for `CN1C(=O)CCC(c2ccccc2)(C2CCN(Cc3ccc(Cl)c(Cl)c3)CC2)C1=O` (stereo not shown) [Compound 122]: 5010 nM; for `COC(=O)CCN1C(=O)CCC(c2ccccc2)(C2CCN(Cc3ccc(Cl)cc3Cl)CC2)C1=O` (stereo not shown) [Compound 124]: 1000 nM. For the molecule `CCN1C(=O)CCC(c2ccccc2)(C2CCN(Cc3ccc(Br)cc3)CC2)C1=O` (stereo not shown) [Compound 126], the pIC50 under setting [3] amounted to 5.6.
